# Literature values in patent US10471178B2, “Implantable medical devices with increased immune tolerance, and methods for making and implanting” (AMPIO PHARMACEUTICALS, INC., priority 2011, dated 2019).
# System: memory but not naive human T lymphocytes
# Details: memory vs naive human T lymphocytes
structure (smiles),measurement,value
"C[C@@H]1NC(=O)[C@H](CC(=O)O)NC1=O [DA-DKP, Aspartate, Alanine-Diketopiperazine]",immunomodulatory effect on human T lymphocytes,immunomodulatory for memory but not naive human T lymphocytes
